Results from ChEMBL document CHEMBL1201862, “PubChem BioAssay data set” (2004).
Calls of active or inactive are those of the source.

Tests used:
Protein Wnt-3a = Protein Wnt-3a (Mus musculus, UniProt P27467); assay: antagonism of Wnt3a pathway luciferase reporter – Wnt-LIGHT cells, luminescence, selectivity assay for Gli-SUFU antagonist project, dose response (AID 651570); format: functional; conditions: read-out: IC50_Mean;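 also: Wnt-LIGHT reporter cells stimulated with conditioned medium from Wnt3a-producing cells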
Protein Wnt-3a, sequence (P27467 whole entry): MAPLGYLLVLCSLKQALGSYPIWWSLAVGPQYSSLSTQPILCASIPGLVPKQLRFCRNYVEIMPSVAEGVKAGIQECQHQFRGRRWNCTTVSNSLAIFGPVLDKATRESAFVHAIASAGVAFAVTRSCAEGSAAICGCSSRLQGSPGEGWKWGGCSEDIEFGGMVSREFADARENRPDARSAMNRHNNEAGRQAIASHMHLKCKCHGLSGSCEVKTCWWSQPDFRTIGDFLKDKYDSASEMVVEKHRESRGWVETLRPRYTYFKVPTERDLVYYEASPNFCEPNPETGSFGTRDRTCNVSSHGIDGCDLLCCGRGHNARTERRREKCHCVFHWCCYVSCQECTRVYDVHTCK

Melanocortin receptor 4 = Melanocortin receptor 4 (Homo sapiens, UniProt P32245); format: functional, cell-based;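 also: Cell-based assay with luminescence read-out, confirmatory dose-response testing for agonist activity of biased ligands at MC4R; human U2OS cells with tagged receptor and beta-arrestin; potency of agonists that increase receptor coupling to beta-arrestin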
Melanocortin receptor 4, sequence (P32245 whole entry, the tested form may be a part): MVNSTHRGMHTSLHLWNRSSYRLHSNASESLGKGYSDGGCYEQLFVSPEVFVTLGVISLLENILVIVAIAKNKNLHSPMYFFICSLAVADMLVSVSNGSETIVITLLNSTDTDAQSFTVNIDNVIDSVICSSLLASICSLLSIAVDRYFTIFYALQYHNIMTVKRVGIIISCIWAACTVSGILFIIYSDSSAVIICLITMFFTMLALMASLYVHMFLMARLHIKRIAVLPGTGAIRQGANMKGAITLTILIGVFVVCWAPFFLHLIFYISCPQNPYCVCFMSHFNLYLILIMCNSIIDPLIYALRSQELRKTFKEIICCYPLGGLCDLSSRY

[1] = Fluorescence-based cell-based high throughput dose response assay for inhibitors of the interaction of nucleotide-binding oligomerization domain containing 2 (NOD2) and the receptor-interacting serine-threonine kinase 2 (RIPK2).; format: functional; conditions: Homo sapiens
Beta Lactamase = Beta Lactamase (Pseudomonas aeruginosa, UniProt Q932Y6); assay: BLA reporter interference, concentration series – BLA reporter cells, FRET fluorescence, artefact control for NOD2-RIPK2 interaction inhibitor project, dose response (AID 651552); format: functional, cell-based
Beta Lactamase, sequence (Q932Y6 whole entry): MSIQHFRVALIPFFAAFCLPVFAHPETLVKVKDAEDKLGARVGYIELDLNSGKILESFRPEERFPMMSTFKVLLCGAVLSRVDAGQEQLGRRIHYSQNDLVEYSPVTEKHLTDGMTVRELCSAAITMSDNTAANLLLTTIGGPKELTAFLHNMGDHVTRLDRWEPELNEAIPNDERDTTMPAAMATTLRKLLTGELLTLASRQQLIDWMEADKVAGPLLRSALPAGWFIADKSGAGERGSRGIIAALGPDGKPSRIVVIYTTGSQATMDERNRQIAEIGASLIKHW

Aurora kinase B = Aurora kinase B (Homo sapiens, UniProt Q96GD4); format: functional
Aurora kinase B, sequence (Q96GD4 whole entry): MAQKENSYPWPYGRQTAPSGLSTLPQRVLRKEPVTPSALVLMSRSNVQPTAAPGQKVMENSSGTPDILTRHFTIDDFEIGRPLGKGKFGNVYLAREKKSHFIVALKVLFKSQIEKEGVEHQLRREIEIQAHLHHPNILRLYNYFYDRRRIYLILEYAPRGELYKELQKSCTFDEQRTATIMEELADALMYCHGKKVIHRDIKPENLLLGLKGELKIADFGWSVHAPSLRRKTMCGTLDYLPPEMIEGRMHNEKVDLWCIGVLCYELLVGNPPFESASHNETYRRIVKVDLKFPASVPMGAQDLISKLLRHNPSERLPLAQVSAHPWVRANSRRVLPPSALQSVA

Aurora kinase A = biological target: T1, Aurora kinase A (Homo sapiens, UniProt O14965); format: functional;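 also: value from the Navigating the Kinome kinase panel profiling, panel entry STK6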
T1 sequence (O14965 whole entry): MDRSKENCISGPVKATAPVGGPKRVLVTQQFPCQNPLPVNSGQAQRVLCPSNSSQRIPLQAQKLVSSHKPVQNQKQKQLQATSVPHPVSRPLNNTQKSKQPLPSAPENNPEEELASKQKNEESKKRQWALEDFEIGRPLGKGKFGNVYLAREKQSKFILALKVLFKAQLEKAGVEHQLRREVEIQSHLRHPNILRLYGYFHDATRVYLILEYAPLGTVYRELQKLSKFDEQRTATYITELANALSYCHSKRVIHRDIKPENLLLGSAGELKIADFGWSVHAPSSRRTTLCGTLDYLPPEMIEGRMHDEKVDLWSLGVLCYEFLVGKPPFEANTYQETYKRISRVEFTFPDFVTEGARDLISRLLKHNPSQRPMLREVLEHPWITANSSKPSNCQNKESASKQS

[2] = biological target: ALK tyrosine kinase receptor (Homo sapiens, UniProt Q9UM73); format: functional;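 also: ALK tested as one member of a kinase panel screen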
[3] = biological target: Vascular endothelial growth factor receptor 2 (Homo sapiens, UniProt P35968); format: functional
Vascular endothelial growth factor receptor 2, sequence (P35968 whole entry): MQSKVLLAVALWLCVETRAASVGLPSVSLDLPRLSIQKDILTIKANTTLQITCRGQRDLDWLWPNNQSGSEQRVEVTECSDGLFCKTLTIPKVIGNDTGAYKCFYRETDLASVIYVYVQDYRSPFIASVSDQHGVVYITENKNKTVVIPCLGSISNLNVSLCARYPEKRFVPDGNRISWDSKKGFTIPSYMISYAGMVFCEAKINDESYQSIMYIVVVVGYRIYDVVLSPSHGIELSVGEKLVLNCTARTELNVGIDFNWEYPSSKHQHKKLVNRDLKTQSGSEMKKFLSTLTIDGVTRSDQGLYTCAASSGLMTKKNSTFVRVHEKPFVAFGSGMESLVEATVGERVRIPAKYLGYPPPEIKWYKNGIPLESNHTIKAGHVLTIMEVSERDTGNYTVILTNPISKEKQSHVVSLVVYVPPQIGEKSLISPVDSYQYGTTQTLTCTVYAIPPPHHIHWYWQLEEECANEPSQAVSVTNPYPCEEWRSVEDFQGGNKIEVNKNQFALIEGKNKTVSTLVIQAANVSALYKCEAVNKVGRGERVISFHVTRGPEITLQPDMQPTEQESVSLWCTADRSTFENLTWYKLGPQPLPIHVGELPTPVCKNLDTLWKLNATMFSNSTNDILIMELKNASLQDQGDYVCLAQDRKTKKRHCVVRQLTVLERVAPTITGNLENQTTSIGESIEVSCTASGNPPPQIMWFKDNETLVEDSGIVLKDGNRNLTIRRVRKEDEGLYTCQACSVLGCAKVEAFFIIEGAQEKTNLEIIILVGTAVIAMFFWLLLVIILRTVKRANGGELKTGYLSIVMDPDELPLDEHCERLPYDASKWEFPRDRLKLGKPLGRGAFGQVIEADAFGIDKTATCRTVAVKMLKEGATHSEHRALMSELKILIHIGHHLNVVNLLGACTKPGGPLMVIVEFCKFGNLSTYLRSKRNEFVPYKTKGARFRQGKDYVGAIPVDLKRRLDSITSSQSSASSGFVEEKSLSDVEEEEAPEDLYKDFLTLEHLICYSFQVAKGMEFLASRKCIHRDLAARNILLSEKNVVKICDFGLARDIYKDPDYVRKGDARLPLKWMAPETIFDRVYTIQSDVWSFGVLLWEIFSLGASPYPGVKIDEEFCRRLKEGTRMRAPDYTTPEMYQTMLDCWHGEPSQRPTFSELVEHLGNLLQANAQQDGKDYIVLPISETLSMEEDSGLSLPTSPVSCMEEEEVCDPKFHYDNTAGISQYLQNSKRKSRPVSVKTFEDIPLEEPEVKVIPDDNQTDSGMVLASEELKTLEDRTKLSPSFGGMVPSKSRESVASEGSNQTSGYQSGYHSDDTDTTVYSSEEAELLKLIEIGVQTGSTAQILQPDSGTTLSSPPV

[4] = biological target: T2, Small ubiquitin-related modifier 2 (Homo sapiens, UniProt P61956); assay: SUMO2 binding disruption by SUMO1 hits – biochemical, FRET, human SUMO2, uHTS hits, selectivity assay for SUMO1 interaction inhibitor project, dose response (AID 624384); format: functional; conditions: read-out: IC50_Mean
T2 sequence (P61956 whole entry): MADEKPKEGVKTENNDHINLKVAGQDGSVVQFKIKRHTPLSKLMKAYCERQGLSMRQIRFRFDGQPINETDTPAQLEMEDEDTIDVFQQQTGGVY

[5] = biological target: T2, Small ubiquitin-related modifier 2; assay: disruption of SUMO2 interaction with SIM peptide – biochemical, fluorescence polarization, uHTS hits, selectivity assay for SUMO1 interaction inhibitor project, dose response (AID 624385); format: functional; conditions: read-out: IC50_Mean
[6] = biological target: T3, Small ubiquitin-related modifier 1 (Homo sapiens, UniProt P63165); assay: SUMO1 protein interaction blockers, potency – biochemical, fluorescence polarization, uHTS hits, dose response (AID 624382); format: functional; conditions: read-out: IC50_Mean
T3 sequence (P63165 whole entry): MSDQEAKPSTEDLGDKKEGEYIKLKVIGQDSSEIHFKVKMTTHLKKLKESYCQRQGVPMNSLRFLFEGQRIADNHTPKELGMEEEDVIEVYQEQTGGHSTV

[7] = biological target: T3, Small ubiquitin-related modifier 1; assay: SUMO1 protein-protein binding blockers, potency – biochemical, FRET, dose response (AID 624383); format: functional; conditions: read-out: IC50_Mean
[8] = biological target: T4, High affinity choline transporter 1 (Homo sapiens, UniProt Q9GZV3); assay: human choline transporter blockers, potency – cell-based, 10-point CRC, membrane potential dye, dose response (AID 588401); format: functional;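 also: membrane potential dye fluorescence of choline-evoked depolarization via CHT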
T4 sequence (Q9GZV3 whole entry): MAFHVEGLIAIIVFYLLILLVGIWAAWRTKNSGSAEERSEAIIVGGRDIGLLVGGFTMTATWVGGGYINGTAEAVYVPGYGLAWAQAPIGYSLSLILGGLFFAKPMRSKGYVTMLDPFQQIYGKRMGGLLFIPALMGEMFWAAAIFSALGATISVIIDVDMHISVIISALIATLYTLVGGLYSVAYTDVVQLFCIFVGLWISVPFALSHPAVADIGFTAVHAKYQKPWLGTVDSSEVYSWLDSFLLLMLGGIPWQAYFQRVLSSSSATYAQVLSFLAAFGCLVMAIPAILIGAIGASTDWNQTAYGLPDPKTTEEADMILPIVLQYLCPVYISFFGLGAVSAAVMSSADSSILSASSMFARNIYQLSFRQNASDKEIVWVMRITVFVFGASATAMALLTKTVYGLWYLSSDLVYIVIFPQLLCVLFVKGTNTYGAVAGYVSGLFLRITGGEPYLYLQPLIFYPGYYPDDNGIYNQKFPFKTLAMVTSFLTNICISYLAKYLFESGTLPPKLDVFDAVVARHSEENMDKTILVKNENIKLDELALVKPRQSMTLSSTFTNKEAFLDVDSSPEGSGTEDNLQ

[9] = biological target: T4, High affinity choline transporter 1; assay: human choline transporter blockers, potency – cell-based, 5-point CRC, membrane potential dye, dose response (AID 504840); format: functional
[10] = biological target: Long-chain-fatty-acid--AMP ligase FadD28 (Mycobacterium tuberculosis, UniProt P9WQ59); assay: Fluorescence polarization aasay to screen for inhibitors that compete for the binding of FadD28 to a bisubstrate Measured in Biochemical System Using Plate Reader - 2147-01_Inhibitor_Dose_CherryPick_Activity.; format: functional, Mycobacterium tuberculosis H37Rv
Long-chain-fatty-acid--AMP ligase FadD28, sequence (P9WQ59 whole entry): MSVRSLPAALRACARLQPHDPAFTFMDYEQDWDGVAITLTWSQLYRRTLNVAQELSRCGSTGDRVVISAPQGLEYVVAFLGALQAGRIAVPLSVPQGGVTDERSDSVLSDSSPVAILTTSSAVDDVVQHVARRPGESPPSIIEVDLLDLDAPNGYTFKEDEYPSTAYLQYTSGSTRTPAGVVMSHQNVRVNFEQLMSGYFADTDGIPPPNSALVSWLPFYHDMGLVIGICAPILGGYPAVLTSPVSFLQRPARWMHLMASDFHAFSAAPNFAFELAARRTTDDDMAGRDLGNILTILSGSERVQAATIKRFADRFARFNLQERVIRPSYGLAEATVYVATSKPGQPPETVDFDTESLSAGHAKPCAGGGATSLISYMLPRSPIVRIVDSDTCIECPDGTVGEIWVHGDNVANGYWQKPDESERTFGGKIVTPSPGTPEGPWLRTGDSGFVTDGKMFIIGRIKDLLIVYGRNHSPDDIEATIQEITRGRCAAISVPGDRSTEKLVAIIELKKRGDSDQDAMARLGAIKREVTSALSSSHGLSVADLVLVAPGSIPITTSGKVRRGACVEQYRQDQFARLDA

[11] = biological target: Melanin-concentrating hormone receptor 1 (Homo sapiens, UniProt Q99705); assay: Late-stage fluorescence-based counterscreen for antagonists of the G-protein coupled receptor 7 (GPR7): cell-based dose response assay to identify antagonists of the melanin-concentrating hormone receptor 1 (MCHR1) Set 6.; format: functional
Melanin-concentrating hormone receptor 1, sequence (Q99705 whole entry): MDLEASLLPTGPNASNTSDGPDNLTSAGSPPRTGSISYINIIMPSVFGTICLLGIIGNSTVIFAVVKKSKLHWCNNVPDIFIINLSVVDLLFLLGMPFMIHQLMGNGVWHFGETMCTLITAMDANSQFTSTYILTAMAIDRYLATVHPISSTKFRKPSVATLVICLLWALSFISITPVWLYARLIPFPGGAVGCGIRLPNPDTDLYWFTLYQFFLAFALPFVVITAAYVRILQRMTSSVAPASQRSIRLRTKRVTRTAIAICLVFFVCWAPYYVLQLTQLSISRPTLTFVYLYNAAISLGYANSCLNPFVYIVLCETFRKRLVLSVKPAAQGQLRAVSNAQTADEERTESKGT

[12] = biological target: T5, Neuropeptides B/W receptor type 1 (Homo sapiens, UniProt P48145); assay: human NPBW1 receptor blockade, IC50 – cell-based, fluorescence, dose response, set 6, late-stage follow-up (AID 588583); format: functional
T5 sequence (P48145 whole entry): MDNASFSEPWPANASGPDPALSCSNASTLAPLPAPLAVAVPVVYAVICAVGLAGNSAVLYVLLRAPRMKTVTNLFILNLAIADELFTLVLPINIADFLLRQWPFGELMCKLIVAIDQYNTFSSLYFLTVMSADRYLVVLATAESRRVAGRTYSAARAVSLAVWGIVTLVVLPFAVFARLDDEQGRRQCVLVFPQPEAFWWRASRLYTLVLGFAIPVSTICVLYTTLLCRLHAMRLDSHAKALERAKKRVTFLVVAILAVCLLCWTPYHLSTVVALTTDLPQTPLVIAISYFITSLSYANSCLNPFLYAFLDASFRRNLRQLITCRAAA

Mu-type opioid receptor = Mu-type opioid receptor (Homo sapiens, UniProt P35372); assay: Counterscreen for agonists of heterodimerization of the mu 1 (OPRM1) and delta 1 (OPRD1) opioid receptors: Luminescence-based cell-based high throughput dose response assay to identify agonists of OPRM1 homodimerization.; format: functional;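 also: U2OS cells expressing OPRM1 and beta-arrestin as split beta-galactosidase partners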
Mu-type opioid receptor, sequence (P35372 whole entry): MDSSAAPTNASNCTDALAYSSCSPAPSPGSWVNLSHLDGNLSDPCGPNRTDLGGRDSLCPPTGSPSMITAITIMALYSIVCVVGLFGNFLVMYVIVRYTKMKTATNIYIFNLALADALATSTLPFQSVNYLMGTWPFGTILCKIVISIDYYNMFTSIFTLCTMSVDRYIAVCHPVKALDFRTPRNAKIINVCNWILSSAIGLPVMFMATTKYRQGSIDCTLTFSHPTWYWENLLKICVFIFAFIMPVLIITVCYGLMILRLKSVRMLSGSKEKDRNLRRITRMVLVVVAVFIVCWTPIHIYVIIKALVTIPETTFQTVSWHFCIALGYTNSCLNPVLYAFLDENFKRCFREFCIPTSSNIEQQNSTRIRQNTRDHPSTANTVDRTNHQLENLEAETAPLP

[13] = viability of HCT116 lacking mutant beta-catenin – cell-based, human colon tumor, dose response (AID 1045); format: functional;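 also: HCT116 colon tumor cells with beta catenin knocked out; cells exposed to compound for 60 hours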
[14] = reduction of Shn3 3'UTR-driven luciferase in osteoblasts – cell-based, Clone20 osteoblasts, firefly luciferase, cherry-picked, dose response (AID 624132); format: functional;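 also: firefly luciferase luminescence from reporter carrying the Shn3 3'UTR in osteoblasts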
[15] = Trypanosoma cruzi growth suppression in host cells – NIH3T3 host cells, beta-gal luminescence, confirmation (AID 2044); format: functional, cell-based;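 also: intracellular parasites grown in NIH/3T3 mouse fibroblasts as host cells; luminescent beta-galactosidase reporter signal from transgenic T. cruzi replicating inside host cells; inhibitors lower the luminescence signal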
[16] = NIH3T3 cell viability loss – ATP luminescence, mouse fibroblasts, counter-screen, dose response (AID 2010); format: functional, cell-based;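 also: cells exposed to compound for about 90 hours before reading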
[17] = non-specific 3'UTR reporter inhibition in Clone20-Shn3RL – cell-based, Renilla luciferase, cherry-picked, counter-screen for Shn3 inhibitor project, dose response (AID 624133); format: functional
[18] = viability of PTEN-deleted HCT116 cells – cell-based, HCT116 PTEN knockout, dose response (AID 1047); format: functional;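 also: HCT116 colon tumor cells with PTEN knocked out; cells exposed to compound for 60 hours before readout; potency for loss of cell viability measured by luminescence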
[19] = loss of viability in HepG2 cells – cell-based, CellTiter-Glo, cherry-picked, cytotoxicity control for Shn3 inhibitor project, dose response (AID 624134); format: functional
[20] = biological target: Delta-type opioid receptor (Homo sapiens, UniProt P41143); assay: Counterscreen for agonists of heterodimerization of the mu 1 (OPRM1) and delta 1 (OPRD1) opioid receptors: Luminescence-based cell-based high throughput dose response assay to identify agonists of OPRD1 homodimerization. [Related pubchem assays (depositor defined):AID504326, AID504355, AID504692, AID504904, AID504905]; format: functional
[21] = biological target: 5-hydroxytryptamine receptor 5A (Homo sapiens, UniProt P47898); assay: Counterscreen for agonists of OPRM1-OPRD1 heterodimerization: luminescence-based cell-based high throughput dose response assay to identify agonists of 5-hydroxytryptamine (serotonin) 5A receptor (HTR5A). [Related pubchem assays (depositor defined):AID504326, AID504355, AID504692, AID504904, AID504905]; format: functional
Paired box protein Pax-8 = Paired box protein Pax-8 (Homo sapiens, UniProt Q06710); assay: PAX8 transcriptional activity inhibition in RMG-I – RMG-I cells, luciferase, cherry-pick, dose response (AID 687027); format: functional, cell-based;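 also: luciferase reporter driven by Pax8 target thyroperoxidase promoter measured by SteadyGlo luminescence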
[22] = viability loss in HEK293 cells – cell-based, plate reader, cherry-picked samples, cytotoxicity control, dose response (AID 743446); format: functional
[23] = toxicity toward HepG2 liver cells – cell-based, plate reader, cherry-pick, antagonist series, cytotoxicity control, dose response (AID 743416); format: functional
[24] = general cell-killing toxicity readout – plate reader, dry powder samples, cytotoxicity control for PAX8 inhibitor project, dose response (AID 743021); format: functional, cell-based
[25] = blockers of bursicon-stimulated LGR2 cAMP reporter – cell-based, HEK293, CRE-luciferase reporter, cherry pick, set 2, dose response (AID 743343); format: functional;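 also: transfected cells were stimulated with diluted bursicon conditioned medium after compound addition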
[26] = A549 cell cytotoxicity, dose response, cytotoxicity control, plate reader, cherry-pick, antagonist series (AID 743412); format: functional, cell-based
[27] = blockade of melanocortin 4 receptor signaling – cell-based, plate reader, cherry pick, counter-screen for LGR2 antagonist project, dose response (AID 743444); format: functional;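 also: transfected HEK 293 cells stimulated with alpha-MSH peptide; potency of inhibitors of the alpha-MSH evoked signal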
[28] = biological target: Mitochondrial peptide methionine sulfoxide reductase (Bos taurus, UniProt P54149); format: functional;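 also: absorbance read-out, biochemical high-throughput dose-response screen for MsrA inhibitors, confirmatory; recombinant bovine MsrA coupled to E. coli TrxB with NADPH and selenocystamine; potency is for inhibitors of MsrA activity on DMSO substrate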
Mitochondrial peptide methionine sulfoxide reductase, sequence (P54149 whole entry): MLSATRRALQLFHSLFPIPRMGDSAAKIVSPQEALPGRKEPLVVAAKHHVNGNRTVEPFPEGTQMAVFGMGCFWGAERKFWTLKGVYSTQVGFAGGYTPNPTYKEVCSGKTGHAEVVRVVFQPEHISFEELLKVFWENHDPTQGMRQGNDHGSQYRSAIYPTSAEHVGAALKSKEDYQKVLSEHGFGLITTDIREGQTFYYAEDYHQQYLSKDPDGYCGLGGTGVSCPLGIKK

[29] = biological target: Glucose-6-phosphate 1-dehydrogenase (Homo sapiens, UniProt P11413); assay: inhibition of Homo sapiens G6PD, dose series – biochemical, fluorescence, selectivity assay for P. falciparum G6PD inhibitor project, dose response (AID 504792); format: functional
Glucose-6-phosphate 1-dehydrogenase, sequence (P11413 whole entry): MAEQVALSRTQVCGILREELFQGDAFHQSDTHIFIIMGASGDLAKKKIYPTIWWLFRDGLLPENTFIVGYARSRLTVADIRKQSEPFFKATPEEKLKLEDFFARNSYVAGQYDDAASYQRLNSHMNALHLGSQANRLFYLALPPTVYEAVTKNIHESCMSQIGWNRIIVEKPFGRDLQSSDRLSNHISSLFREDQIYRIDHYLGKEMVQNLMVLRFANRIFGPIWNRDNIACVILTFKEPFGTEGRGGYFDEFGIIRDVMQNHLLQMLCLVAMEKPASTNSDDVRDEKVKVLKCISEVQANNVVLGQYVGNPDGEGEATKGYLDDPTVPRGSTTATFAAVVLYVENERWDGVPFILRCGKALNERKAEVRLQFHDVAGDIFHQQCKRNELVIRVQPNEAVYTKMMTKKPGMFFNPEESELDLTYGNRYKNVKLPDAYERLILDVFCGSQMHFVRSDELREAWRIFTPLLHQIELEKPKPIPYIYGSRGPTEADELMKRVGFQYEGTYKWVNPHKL

[30] = biological target: T6, Sentrin-specific protease 8 (Homo sapiens, UniProt Q96LD8); format: functional
T6 sequence (Q96LD8 whole entry): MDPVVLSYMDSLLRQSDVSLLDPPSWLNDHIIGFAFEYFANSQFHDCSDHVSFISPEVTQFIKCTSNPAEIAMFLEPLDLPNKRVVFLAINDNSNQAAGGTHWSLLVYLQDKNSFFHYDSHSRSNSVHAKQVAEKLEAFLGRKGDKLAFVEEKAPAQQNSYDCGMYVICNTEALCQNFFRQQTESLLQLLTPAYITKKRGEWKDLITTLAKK

[31] = biological target: T6, Sentrin-specific protease 8; format: functional; remark: listed apart in the source

## CCCN1CCC(=O)N([C@H](CSc2ccc(OC)cc2)Cc2ccccc2)CC1
Protein Wnt-3a
  IC50: 11 µM (active)

## N#Cc1sc2nc(-c3cccs3)cc(-c3ccc(F)cc3)c2c1N
Melanocortin receptor 4
  EC50: > 89.2 µM (inactive)

## CC(=O)O/N=C1C=C/C(=C(\C#N)c2ccccc2)C=C/1
[1]
  IC50: 5.83 µM (active)
Beta Lactamase
  IC50: 49.8 µM (inactive)

## NC1CCN(C(=O)c2ccc3c(c2)[nH]c(=O)c2cccn23)CC1
Aurora kinase B
  Ki: 0.158 µM (active)
Aurora kinase A
  Ki: > 2 µM (inactive)
[2]
  Ki: > 3.16 µM (inactive)

## O=S(=O)(Nc1ccc2c(c1)C(=NO)c1ccccc1-2)c1cccc(Cl)c1
Aurora kinase B
  Ki: 0.00398 µM (active)
[3]
  Ki: 3.16 µM (active)
Aurora kinase A
  Ki: > 2 µM (inactive)

## COc1ccc(-c2csc(/C(C#N)=C\c3ccc(O)c([N+](=O)[O-])c3)n2)cc1OC
[4]
  IC50: > 66 µM (inactive)
[5]
  IC50: 35.7 µM (inactive)
[6]
  IC50: 51.3 µM (inactive)
[7]
  IC50: 52.1 µM (inactive)

## O=C(NCCCn1ccnc1)c1cnn2c1NC(c1ccccc1)CC2C(F)(F)F (centres undefined)
[8]
  IC50: 4.47 µM (active)
[9]
  IC50: 8.15 µM (active)

## CC(C)(C)c1ccc(NC(=O)Nc2ccc(OCC(=O)N3CCOCC3)cc2)cc1
[10]
  AC50: 41.4 µM (active)

## N#CC(c1ccccc1[N+](=O)[O-])c1c(Cl)cnn(Cc2cccc3ccccc23)c1=O (centres undefined)
[11]
  IC50: 1.26 µM (active)
[12]
  IC50: 1.26 µM (active)

## Cc1ccc(Cn2c(=N)n(CC(O)COc3ccccc3)c3ccccc32)cc1 (centres undefined)
[8]
  IC50: 7.08 µM (active)
Mu-type opioid receptor
  EC50: 35.1 µM (inactive)
[9]
  IC50: 5.55 µM (active)
[13]
  EC50: 5.07 µM (active)
[14]
  AC50: 2.46 µM (active)
[15]
  EC50: 4.91 µM (active)
[16]
  EC50: 9.05 µM (active)
[17]
  AC50: 3.9 µM (active)
[18]
  EC50: 5.49 µM (active)
[19]
  AC50: 21.4 µM (active)
[20]
  EC50: > 92.5 µM (inactive)
[21]
  EC50: > 92.5 µM (inactive)

## Cc1ccc(Cl)cc1N=C1C=C(NS(=O)(=O)c2cccs2)c2ccccc2C1=O
Paired box protein Pax-8
  AC50: 4.82 µM (active)
[22]
  AC50: 7.88 µM (active)
[23]
  AC50: 8 µM (active)
[24]
  AC50: 17.2 µM (active)
[25]
  AC50: 4.71 µM (active)
[26]
  AC50: 10.1 µM (active)
[27]
  AC50: 5.09 µM (active)
[28]
  IC50: 155 µM (inactive)
[29]
  IC50: > 80 µM (inactive)

## N#CC(c1c(F)c(F)c(F)c(F)c1F)c1c(Cl)cnn(Cc2cccc3ccccc23)c1=O (centres undefined)
[11]
  IC50: 1.56 µM (active)
[12]
  IC50: 1.56 µM (active)

## Cn1c(NNC(=O)c2c(F)cccc2F)cc(=O)n(C)c1=O
[30]
  IC50: 28 µM (active)
[31]
  IC50: 12.5 µM (active)
